Test systems include A549 NSCLC; BT-549 breast; CAKI-1 renal; CCRF-CEM leukemia; HCT-15 colon; HS 578T breast; MALME-3M melanoma; SF-539 CNS; TK-10 renal; UACC-257 melanoma.
Assay in all cases: inhibition of tumour cell growth, NCI panel, 48 h

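The compound was tested at five concentrations on cells cultured in 96-well plates, with a 48-hour exposure period. Abbreviation: GI50, concentration required for 50% inhibition of growth. TGI marks complete inhibition of growth.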 *1 amine or outer side, *2 acyl side, *3 side chain or, on linkers, in order; H or OH if unused. Where a SMILES comes first, the peptide text is derived from it. Bridges are numbered along the chain shown (N, C = ends). Roman numbers before positions name the chains, in order. [ ]: non-standard residue; d: D form. Actinocin(9to1) = Cc1c2oc3c(C)ccc(C(=O)[*:1])c3nc-2c(C(=O)[*:2])c(N)c1=O; NMeV = CN[CH](C(=O)O)C(C)C; Sar = CNCC(=O)O

Drawing on PubChem BioAssay (NCI), this text covers GI50 and TGI for 13 compounds.

Regarding `C[C@]12CC[C@@H]3c4ccc(O)cc4CC[C@H]3[C@@H]1CC[C@@H]2NS(=O)(=O)c1cccc(Cl)c1`, the GI50 in the assay with A549 NSCLC was 3.22 µM; in the assay with BT-549 breast, 2.15 µM; in the assay with CAKI-1 renal, 2.97 µM; in the assay on CCRF-CEM leukemia, 2.94 µM; with HCT-15 colon, 2.28 µM; in the assay on HS 578T breast it was 3.09 µM. Also, the GI50 in the assay with MALME-3M melanoma is 2.36 µM; in the assay with SF-539 CNS it was 1.76 µM; in the assay with TK-10 renal, 3.46 µM; in the assay with UACC-257 melanoma, 2.9 µM. Moreover, the TGI in the assay on A549 NSCLC was 12.7 µM; in the assay with BT-549 breast, 5.25 µM; with CAKI-1 renal it was 10.6 µM; in the assay with CCRF-CEM leukemia it was 14.4 µM; in the assay on HCT-15 colon, 7.2 µM; with HS 578T breast it was 13.1 µM. The TGI with MALME-3M melanoma is 6.75 µM; in the assay on SF-539 CNS it was 3.45 µM; in the assay with TK-10 renal, 11.2 µM; in the assay with UACC-257 melanoma, 12.3 µM.
Turning to `CC(=Nc1ccccc1)C1=C(O)C(Cc2cccc(F)c2)NC1=O` (stereo unspecified), the GI50 in the assay with A549 NSCLC was 0.0511 µM; in the assay on BT-549 breast, 0.173 µM; in the assay with CAKI-1 renal it was 0.049 µM; with CCRF-CEM leukemia, 0.0581 µM; in the assay with HCT-15 colon, 0.0444 µM; with HS 578T breast, 0.0501 µM. The GI50 in the assay on MALME-3M melanoma was 0.0419 µM; with SF-539 CNS, 0.0374 µM; in the assay with TK-10 renal, 6.15 µM. For the same compound, the TGI with A549 NSCLC, in the assay with BT-549 breast, with CAKI-1 renal, in the assay on CCRF-CEM leukemia, in the assay with HCT-15 colon and in the assay with HS 578T breast was above 100 µM throughout. Besides, the TGI in the assay with MALME-3M melanoma and with TK-10 renal was above 100 µM throughout.
As for `CCCCCCCN(CCCCCCC)C(=N)c1ccnc2ccccc12`, the GI50 with A549 NSCLC is 1.77 µM; with BT-549 breast it was 1.36 µM; in the assay with CAKI-1 renal, 1.32 µM; in the assay with CCRF-CEM leukemia it was 2.14 µM; with HCT-15 colon, 1.59 µM; in the assay with HS 578T breast, 1.64 µM. The GI50 with MALME-3M melanoma was 1.62 µM; with SF-539 CNS, 1.9 µM; with TK-10 renal it was 1.51 µM; with UACC-257 melanoma, 1.72 µM. For the same compound, the TGI was 3.41 µM in the assay on A549 NSCLC; 2.74 µM in the assay on BT-549 breast; 2.68 µM in the assay with CAKI-1 renal; 5.27 µM with CCRF-CEM leukemia; 3.04 µM in the assay with HCT-15 colon; 4.36 µM in the assay on HS 578T breast. Also, the TGI with MALME-3M melanoma came out at 3.37 µM; with SF-539 CNS, 3.58 µM; in the assay with TK-10 renal it was 2.97 µM; in the assay with UACC-257 melanoma it was 3.5 µM.
`O=C1NC(=O)[C@@]2(CC[C@@H](O)C2)c2ccncc21`: the TGI in the assay with A549 NSCLC, in the assay with BT-549 breast, in the assay with CAKI-1 renal, in the assay with CCRF-CEM leukemia, in the assay with HCT-15 colon and in the assay on HS 578T breast was above 100 µM in each case. In addition, the TGI with MALME-3M melanoma, in the assay with SF-539 CNS, in the assay with TK-10 renal and in the assay with UACC-257 melanoma was above 100 µM throughout.
`CC/C=C\C[C@H](O)C/C=C1/C(=O)C=C[C@@H]1C/C=C\CCCC(=O)OC(C)C`: the GI50 with A549 NSCLC is 2.48 µM; in the assay with BT-549 breast, 1.25 µM; with CAKI-1 renal it was 2.51 µM; in the assay on CCRF-CEM leukemia, 0.425 µM; in the assay with HCT-15 colon, 0.674 µM; with HS 578T breast, 5.21 µM. Moreover, the GI50 is 1.64 µM in the assay with MALME-3M melanoma, 3.54 µM in the assay on TK-10 renal and 2.16 µM with UACC-257 melanoma. Further, the TGI is 5.88 µM in the assay on A549 NSCLC; 3.51 µM with BT-549 breast; 10.3 µM with CAKI-1 renal; 2.53 µM in the assay with CCRF-CEM leukemia; 2.75 µM in the assay with HCT-15 colon; 41.2 µM in the assay with HS 578T breast. In addition, the TGI in the assay on MALME-3M melanoma stood at 3.75 µM; in the assay on TK-10 renal, 9.31 µM; in the assay on UACC-257 melanoma, 5.49 µM.
With `COC(NC(N)=O)C(=O)O` (stereo unspecified), the TGI with A549 NSCLC, in the assay with BT-549 breast, with CAKI-1 renal, in the assay with CCRF-CEM leukemia, in the assay on HCT-15 colon and with HS 578T breast was above 100 µM each time. The TGI in the assay on MALME-3M melanoma, in the assay with SF-539 CNS, in the assay on TK-10 renal and with UACC-257 melanoma was above 100 µM in each case.
For the compound `COc1cccc(-n2ncc3c(N/N=C/c4ccc(C)cc4)ncnc32)c1`, the GI50 with A549 NSCLC was above 25 µM; in the assay on BT-549 breast, above 25 µM; with CAKI-1 renal it was above 25 µM; with CCRF-CEM leukemia, above 25 µM; in the assay with HCT-15 colon, above 25 µM; in the assay on HS 578T breast, above 17.4 µM. Further, the GI50 in the assay on MALME-3M melanoma was 24.1 µM; in the assay with SF-539 CNS it was above 25 µM; with TK-10 renal, above 25 µM; with UACC-257 melanoma, above 21.7 µM. The TGI with A549 NSCLC, with BT-549 breast, with CAKI-1 renal, with CCRF-CEM leukemia, in the assay with HCT-15 colon and in the assay with HS 578T breast was above 25 µM in each case. In addition, the TGI in the assay with MALME-3M melanoma, in the assay with SF-539 CNS, in the assay on TK-10 renal and in the assay on UACC-257 melanoma was above 25 µM in each case.
With `O=C(O)C(Br)C(Br)C(=O)O` (stereo unspecified), the TGI in the assay with A549 NSCLC, with BT-549 breast, with CAKI-1 renal, in the assay with HCT-15 colon, in the assay with HS 578T breast and with MALME-3M melanoma was above 100 µM in each case. Also, the TGI in the assay on SF-539 CNS, in the assay with TK-10 renal and in the assay with UACC-257 melanoma was above 100 µM in each case.
As for `COc1cc2c3c(n(CCCCNC(=O)OC(C)(C)C)c(=O)c2cc1OC)-c1cc2c(cc1C3=O)OCO2`, the GI50 is above 100 µM in the assay on A549 NSCLC; above 100 µM in the assay with BT-549 breast; 3.45 µM with CAKI-1 renal; above 100 µM in the assay with HCT-15 colon; 59 µM in the assay on HS 578T breast; above 100 µM with MALME-3M melanoma. The GI50 with SF-539 CNS was 8.39 µM; with TK-10 renal, above 100 µM; with UACC-257 melanoma, above 100 µM. The TGI in the assay on A549 NSCLC is above 100 µM; with BT-549 breast it was above 100 µM; in the assay on CAKI-1 renal, 74.5 µM; in the assay on HCT-15 colon, above 100 µM; in the assay on HS 578T breast, above 100 µM; with MALME-3M melanoma, above 100 µM. Further, the TGI in the assay on SF-539 CNS, in the assay on TK-10 renal and in the assay on UACC-257 melanoma was above 100 µM in each case.
Take `CCOc1cc(C(=O)O)c2c(ccc3ccc(OC)c(OC)c32)c1OC`: the TGI in the assay on A549 NSCLC, in the assay with BT-549 breast, in the assay on CAKI-1 renal, in the assay with CCRF-CEM leukemia, in the assay with HCT-15 colon and with HS 578T breast was above 100 µM throughout. The TGI in the assay on MALME-3M melanoma, with TK-10 renal and in the assay with UACC-257 melanoma was above 100 µM each time.
`Cc1c2oc3c(C)ccc(C(=O)OC(C)C4NC(=O)C(C(C)C)N(C)C(=O)CN(C)C(=O)C5CCCN5C(=O)C(C(C)C)NC4=O)c3nc-2c(C(=O)OC(C)C2NC(=O)C(C(C)C)N(C)C(=O)CN(C)C(=O)C3CCCN3C(=O)C(C(C)C)NC2=O)c(N)c1=O` (stereo unspecified) (I: cyclo([Sar][NMeV]TVP) / II: cyclo([Sar][NMeV]TVP); linker I:3-II:3 via Actinocin(9to1); configuration not given here): the GI50 is below 0.01 µM in the assay with BT-549 breast; 0.0596 µM in the assay on CAKI-1 renal; below 0.0111 µM in the assay with CCRF-CEM leukemia; 0.0396 µM with HCT-15 colon; 0.0192 µM in the assay with HS 578T breast; below 0.01 µM in the assay on MALME-3M melanoma. The GI50 with SF-539 CNS was below 0.01 µM; in the assay on TK-10 renal, below 0.0127 µM; in the assay with UACC-257 melanoma, below 0.01 µM. The TGI in the assay on BT-549 breast is 0.0363 µM; in the assay on CCRF-CEM leukemia it was above 66.3 µM; in the assay with HCT-15 colon, above 100 µM; in the assay on MALME-3M melanoma it was 0.0282 µM; in the assay on SF-539 CNS it was 0.0656 µM; with TK-10 renal, 0.894 µM.
For the compound `O=C(O)C1CCN(Cc2oc(CO)cc(=O)c2O)C1` (stereo unspecified), the TGI in the assay with A549 NSCLC, with BT-549 breast, in the assay on CAKI-1 renal, in the assay with CCRF-CEM leukemia, in the assay on HCT-15 colon and in the assay on HS 578T breast was above 100 µM throughout. For the same compound, the TGI with MALME-3M melanoma, in the assay on TK-10 renal and in the assay on UACC-257 melanoma was above 100 µM throughout.
Regarding `O=C(O)/C=C/c1ccc[c]([Sb](=[O])([OH])[OH])c1`, the GI50 in the assay on A549 NSCLC, with BT-549 breast, in the assay with CAKI-1 renal, in the assay with HCT-15 colon, with HS 578T breast and in the assay on MALME-3M melanoma was above 100 µM each time. The GI50 in the assay on TK-10 renal and in the assay with UACC-257 melanoma was above 100 µM in each case. Moreover, the TGI with A549 NSCLC, in the assay on BT-549 breast, in the assay on CAKI-1 renal, in the assay with HCT-15 colon, with HS 578T breast and in the assay with MALME-3M melanoma was above 100 µM in each case. Besides, the TGI in the assay on TK-10 renal and in the assay on UACC-257 melanoma was above 100 µM throughout.
